Measurements published in US5525731A, “Camptothecin analogues and methods of preparation thereof” (priority 1994, dated 1996).
Entries after “also recorded” stand apart in the source; their conditions may differ. Like-named read-outs stand apart in the source and are kept apart here.

What was measured:
[1] = system: HL-60 cells (human promyelocytic leukemia); assay: Cytotoxicity, XTT assay, HL-60 cell growth, 72 hr exposure; type: cell-based; settings: for IC50: read-out: Inhibitory Concentrations IC50
Procedure: (§1) The synthesized compounds were evaluated for their cytotoxic effects on HL-60 (human promyelocytic leukemia) and 833K cells. The assay was conducted in 96-well microplates. The compounds were serially diluted in 4 to 6 steps with dimethylsulfoxide and added to cell incubation medium (RPMI 1640 containing 10% fetal. […]) at the final concentration of 1.0% dimethylsulfoxide in the medium. The cytotoxicity of the compounds were determined by the XTT-microculture tetrazolium assay: 2',3'-bis(2-methoxy-4-nitro-5-sulfophenyl)-3-[(phenylamino)carbonyl]-2H-tetrazolium hydroxide (XTT) was prepared at 1 mg/mL in prewarmed (37° C.) medium without serum. Phenazine methosulfate (PMS) and fresh XTT were mixed together to obtain 0.075 mM PMS-XTT solution (25 mL of the stock with 5 mg PMS added per 5 mL of 1 mg/mL XTT). Fifty microliters of this mixture were added to each well of the cell culture after 72 hours exposure to the testing compound. After incubation at 37° C. for 6 hours, the absorbance was determined at 450 nm and 630 nm with a microplate reader (EL 340, Bio-Tek Instruments, Inc., Winooski, Vt.). THe median-effect inhibitory concentration (IC50) was determined from a medium-effect plot using computer software for the purpose.
(§2) The results of the assay of cytotoxicity towards HL-60 and 833K cells of several analogues of camptothecin prepared in accord with the invention are illustrated in the accompanying Tables I and II, along with comparison data for native camptothecin. The data shown indicate that the camptothecin analogues prepared by the new methods provided by the invention have significant cytotoxic activity against cancer cells. […]

[2] = system: 833K cells; assay: Cytotoxicity, XTT assay, 833K cell growth, 72 hr exposure; type: cell-based; settings: Homo sapiens, 72 h
Procedure: as §1, §2

[3] = system: B-16 melanoma; type: in vivo, BD2 F1 mice
Procedure: Average body weight changes were recorded daily.
Tumor: B16 Melanoma Drug A = Camptothecin
Inoculation: 2 × 10^6 cells. S.C.
(§3) Schedule: QD × 5. I.P. started day 4

[4] = system: Sarcoma 180
Procedure: The control lane (Table A) indicates separate inoculation of nine mice with B-16 melanoma and sarcoma 180.
Anti-tumor activity of the newly synthesized compounds and the established drugs (as positive controls) against solid tumors (B-16 melanoma and sarcoma 180) was tested in BD2 F1 mice. Tumor (about 2.5×10^6 cells) was inoculated subcutaneously (s.c.). Treatment with the drug started on day 4 after inoculation. The drug was injected intraperitoneously (i.p) daily (QD) for five days. Control mice received the same volume (50 μl) of the solvent vehicle (Dinso) as the drug-treated animals. Tumor size was evaluated every few days using a caliper for both the control and the treated group. Average body weight changes were recorded daily. Any lethality due to high dose drug toxicity or due to tumor progression was also recorded.
as §3

[5] = system: topoisomerase I; settings: camptothecin, literature; cited from earlier work
[6] = system: topoisomerase I and DNA; settings: camptothecin, literature; cited from earlier work
[7] = camptothecin, background; cited from earlier work
[8] = Table I, HL-60 (head HL-6), 72 hr, XTT
[9] = B-16 melanoma, 4 mg/kg i.p. QD × 5, day 7
[10] = Sarcoma 180, 4 mg/kg i.p. QD × 5, day 7

Structure (SMILES): CC[C@@]1(O)C(=O)OCc2c1cc1n(c2=O)Cc2cc3ccccc3nc2-1 [Camptothecin]
- IC70 ([1]; Homo sapiens, HL-60, 72 h, read-out: Inhibitory Concentrations IC70, Table I, HL-60 (head HL-6), 72 hr, XTT): 12 nM
- IC70 ([1]; Homo sapiens, HL-60, 72 h, read-out: Inhibitory Concentrations IC70, Table II, HL-60, 72 hr, XTT): 12 nM
- IC95 ([1]; Homo sapiens, HL-60, 72 h, read-out: Inhibitory Concentrations IC95, Table I, HL-60 (head HL-6), 72 hr, XTT): 25 nM
- IC95 ([1]; Homo sapiens, HL-60, 72 h, read-out: Inhibitory Concentrations IC95, Table II, HL-60, 72 hr, XTT): 25 nM
- Inhibitory Concentrations IC70 [1, 8]: 0.006
- Inhibitory Concentrations IC95 [1, 8]: 0.022
- IC70 ([1]; Table II, HL-60, 72 hr, XTT, read-out: Inhibitory Concentrations IC70): 6 nM
- IC95 ([1]; Table II, HL-60, 72 hr, XTT, read-out: Inhibitory Concentrations IC95): 22 nM
- IC50 [1, 8]: 3.5 nM
- IC50 ([1]; Table I, HL-60 (head HL-6), 72 hr, XTT, listed as WS-1): 9.4 nM
- IC50 ([1]; Table II, HL-60, 72 hr, XTT): 3.5 nM
- IC50 ([1]; Table II, HL-60, 72 hr, XTT, listed as WS-1): 9.4 nM
- IC50 ([2]; read-out: Inhibitory Concentrations IC50): 15.3 nM
- IC70 ([2]; read-out: Inhibitory Concentrations IC70): 43 nM
- IC95 ([2]; read-out: Inhibitory Concentrations IC95): 649 nM
- AVERAGE TUMOR VOLUME ([3]; B16 melanoma, 4 mg/kg, day 7): 0.113 CM^3
- DEATHS (D/L) ([3]; B16 melanoma, 4 mg/kg, day 7): 0/2
- PERCENT OF CONTROL (tumor volume) ([3]; B16 melanoma, 4 mg/kg, day 7): 59.5%
- AVERAGE TUMOR VOLUME ([3]; B16 melanoma, 4 mg/kg, day 14): 3.500 CM^3
- AWC (average weight change) ([3]; B16 melanoma, 4 mg/kg, day 14): +2.4 GM
- DEATHS (D/L) ([3]; B16 melanoma, 4 mg/kg, day 14): 0/2
- PERCENT OF CONTROL (tumor volume) ([3]; B16 melanoma, 4 mg/kg, day 14): 109.8%
- average weight loss ([3]; B-16 melanoma, 4 mg/kg): 1.8 gm
- tumor volume decrease ([3]; B-16 melanoma, 4 mg/kg): 40%
- AWC (average weight change) [3, 9]: -1.8 gm
- Ave Tumor Volume (T/C) [3, 9]: 0.595
- AWC (average weight change) [4, 10]: -0.9 gm
- Ave Tumor Volume (T/C) [4, 10]: 0.634
- AVERAGE TUMOR VOLUME ([4]; Sarcoma 180, 4 mg/kg, day 7): 0.104 CM^3
- DEATHS (D/L) ([4]; Sarcoma 180, 4 mg/kg, day 7): 0/2
- PERCENT OF CONTROL (tumor volume) ([4]; Sarcoma 180, 4 mg/kg, day 7): 63.4%
- AVERAGE TUMOR VOLUME ([4]; Sarcoma 180, 4 mg/kg, day 14): 0.080 CM^3
- AWC (average weight change) ([4]; Sarcoma 180, 4 mg/kg, day 14): +0.8 GM
- DEATHS (D/L) ([4]; Sarcoma 180, 4 mg/kg, day 14): 0/2
- PERCENT OF CONTROL (tumor volume) ([4]; Sarcoma 180, 4 mg/kg, day 14): 39.4%
- average weight loss ([4]; sarcoma 180, 4 mg/kg): 0.9 gm
- tumor volume decrease ([4]; sarcoma 180, 4 mg/kg): 36%
- inhibition of topoisomerase I on DNA unwinding [5]: inhibits the action of topoisomerase I on DNA unwinding; also recorded: reversible with heat, high salt concentrations and high dilution
- binding to the enzyme or DNA target in isolation [6]: binds neither to the enzyme nor to its DNA target in isolation
- toxicity [7]: High toxicity
